Reference: patent US6906239B2, “Plant preparations” (priority 2002, dated 2005)

Key:
White rot fungus = White rot fungus cultured on plant samples treated with fungicidal candidates, lignin and chitin staining (Example 12 ii); type: cell-based, Phanerochaete chrysosporium; settings: 100 ppm four weeks before harvest, fungus cultured three months, scale 9 to 0
Method: (§1) Staining intensity ratings were subjectively established on ten-point rating scales and used as qualitative rankings within each individual example. Unless otherwise indicated, staining for lignin present in bagasse was performed by both the phlorgluciol and hypochlorite/sulfite techniques and was rated subjectively on a ten-step scale, from most intense staining (9) to no staining (0). Staining for chitin present in the bagasse was also subjectively rated on a ten-step scale from most intense staining (9) to no staining (0). All staining techniques were performed in triplicate, unless otherwise indicated.
Tulip tree, White Pine and corn plants were treated with fungicidal candidates four weeks before harvest. White rot fungus (Phanerochaete chrysosporium) was then cultured on the plant samples for three months. Staining and quantification of lignin and chitin present in plant materials was performed as described above.

white-rot fungus [1] = experiment: White-rot fungus cultured on corn stalk fibrous extract from treated corn (Example 11); type: cell-based, Phanerochaete chrysosporium; settings: for Staining intensity Chitin / Staining intensity Lignin: corn stalk, fungus cultured three months, scale 9 to 0
From the text: (§2) Phanerochaete chrysosporium, a lignin degrading fungus, was maintained on potato dextrose agar (PDA). Lignin degradation studies employed culturing the fungus in a liquid mineral salt medium that contained treated plant materials, such as bagasse from a plant that had been treated with a modified precursor preparation. The bagasse in the medium comprised the sole source of organic carbon for support of fungal growth. One inoculum “loop,” a standard tool used in the preparation and culturing of microbes, was used to inoculate the medium.
as §1
Glyphosate (Sigma Aldrich) is commercially available as a no-till herbicide for use with corn. In this example glyphosate at the one-fourth the label rate (i.e., approximately 3 oz per acre) was added to 3-chlorocinnamic acid. The label rate of glyphosate was 12 oz per acre. The glyphosate was applied through a spray treatment that included two sprays, both one month after seedling emergence and once at tasseling. The spray application was applied with a silicone spreader/sticker until runoff. White-rot fungus was cultured on potato dextrose agar and then use to inoculate a medium containing the corn stalk fibrous extract as described in Example 2 above. These samples were cultured under appropriate conditions for three months.

white-rot fungus [2] = experiment: White-rot fungus cultured on bagasse from treated sugar cane, lignin and chitin staining (Examples 5, 6, 8); type: cell-based, Phanerochaete chrysosporium; settings: for Staining intensity Chitin / Staining intensity Lignin: fungus cultured three months, scale 9 to 0
From the text: as §2, §1
Technique 1: Place sections in a drop of saturated, aqueous phloroglucinol in 20% HCl. Lignin appears as deep red (9) to light purple (1).
Technique 2: Place sections in commercial hypochlorite bleach for five minutes and transfer to a 1% solution of sodium sulfite. Lignin appears as a bright red cherry color (9) that fades to brown (1) in approximately 1 hour.
Technique: Sections are autoclaved in saturated KOH for 10 minutes to convert chitin to chitosan. Washed sections are placed in a few drops of iodine-potassium iodide solution (2 gm KI in 100 ml water and add 0.2 gm I2) in 1% sulfuric acid. Abundant amounts of chitosans appear dark violet (9) and a lower concentration as a light blue stain (1). Care should be exercised since cellulose may also stain under these conditions. For this reason, if necessary, cellulose can be removed by flooding with Schweitzer's reagent (saturated copper hydroxide in ammonium hydroxide) prior to iodine-potassium iodide treatment.
In similar fashion to Example 4, sugar cane plants were treated at four weeks and also at two weeks before harvest, with five grams of the modified precursors described above, by drenching the sugar cane roots. Bagasse samples were then obtained and approximately 10 g used in the following experiment.
In this experiment, white-rot fungus was cultured on the bagasse samples for three months. Specifically, P. chrysosporium was maintained on PDA and then added to a liquid mineral salt medium that contained the treated plant materials, such as treated bagasse. One inoculum “loop,” a standard tool used in the preparation and culturing of microbes, was used to inoculate the bagasse-containing medium. The medium with the bagasse comprised the only sole source of organic carbon for support of fungal growth. After culturing the fungus on the bagasse stored in the liquid medium, the bagasse was collected from the medium and then stained for lignin and chitin.
Sugar cane plants were treated with either 0.5 g, 5 g or 50 g of 2,6-difluorocinnamic acid or 3-cholorcinnamic acid four weeks prior to harvest and also at two weeks prior to harvest. Thus, the total dosage of each modified precursor is either 1 g, 10 g, or 100 g. White-rot fungus was then cultured on the extracted bagasse samples for three months and lignin and chitin staining performed.
Glyphosine (Sigma Aldrich) is commercially available as a sugarcane ripener for use several weeks before harvest. In this example, glyphosine, at one-fourth the label rate (i.e., approximately 4 oz per acre), was added to 3-chlorocinnamic acid during drench treatments of 5 gm, both four weeks and two weeks prior to harvest. The label rate of glyphosine was 16 oz. White-rot fungus was cultured on the bagasse samples for three months according to the methodology described in Example 2.

Soil microorganisms [3] = experiment: In situ soil degradation of bagasse from treated sugar cane (Example 9); settings: 10 grams drench at 4 and 2 weeks before harvest, buried in soil six months, scale 9 to 0
From the text: (§3) Fertile sandy loam topsoil in a cultivated field that had been used for the sequential cultivation of corn for the prior two years constituted the in situ environment. The field was located in the town Ingleside on the Eastern Shore of Maryland. The tissue burial and recovery work was completed in multiple marked plots.
as §1
Sugar cane plants were treated four weeks and two weeks before harvest with drench applications of 10 grams of one of the chemicals listed in Table 6, i.e., cinnamic acid, 2,6-difluorocinnamic acid, 3-chlorocinnamic acid or 2-chloro-4-hydroxybenzaldehyde. Approximately, 10 g of extracted bagasse samples were mixed equally with sand, and the mixture placed into a nylon sack and buried approximately 6 inches below the ground. The samples were buried in such a fashion for six months from the March through August time period. All staining was done in quintuplicate.

Soil microorganisms [4] = experiment: In situ soil degradation of corn stalk from treated corn plants (Example 10); settings: two sprays of 20 mM, buried in soil six months, scale 9 to 0
From the text: Plants were cultivated in a greenhouse environment and modified precursors and control precursors were applied via a foliar spray. Treated plants were permitted to naturally mature, senesce and dry down. After dry down several centimeter long sections were taken from nodal and from internodal regions at the base of the stalk for further in situ soil treatment. After treatment, thin sections were made, stained and visually inspected. Observations were made with a dissecting or a light microscope.
as §3, §1
Treatment of corn plants included two sprays, both one month after seedling emergence and once at tasseling with a spray application of 20 mM of one of the chemicals listed in Table 7, i.e., cinnamic acid, 2,6-difluorocinnamic acid, 3-chlorocinnamic acid or 2-chloro-4-hydroxybenzaldehyde with a silicone spreader/sticker until runoff. Dried stalk samples were buried in soil, as described above, for six months from the March through August time period. All staining was done in quintuplicate.

[5] = sugar cane bagasse, 5 g drench at 4 and 2 weeks before harvest
[6] = Example 8, 10 gm with Glyphosine at one-fourth the label rate
[7] = Example 8, 10 gm without glyphosine
[8] = total dosage 1 gm (0.5 g at 4 and 2 weeks before harvest)
[9] = total dosage 10 gm (5 g at 4 and 2 weeks before harvest)
[10] = total dosage 100 gm (50 g at 4 and 2 weeks before harvest)
[11] = two sprays of 20 mM with Glyphosate at one-fourth the label rate
[12] = two sprays of 20 mM, without glyphosate

SMILES: c1ccc2[nH]c(-c3cscn3)nc2c1 [Thiabendazole, 2-(4-thiazolyl)benzimidazole]
- Intensity of Chitin Stain (White rot fungus; Corn plant): 1
- Intensity of Lignin Stain (White rot fungus; Corn plant): 9
- Intensity of Chitin Stain (White rot fungus; Tulip tree): 1
- Intensity of Lignin Stain (White rot fungus; Tulip tree): 9
- Intensity of Chitin Stain (White rot fungus; White Pine tree): 2
- Intensity of Lignin Stain (White rot fungus; White Pine tree): 8

SMILES: O=C(O)CNCP(=O)(O)O [glyphosate, Glyphosate, reference compound]
- Effect on effectiveness of halogen-substituted precursor molecules in reducing lignin biodegradation by white-rot fungi (white-rot fungus [1]; glyphosate at one-fourth the label rate added to the spray, corn): increases the effectiveness

SMILES: O=C(O)C=Cc1ccccc1 [Cinnamic Acid, reference compound]
- Staining intensity Chitin (white-rot fungus [2]; [5]): 9
- Staining intensity Lignin (white-rot fungus [2]; [5]): 1
- Staining intensity Chitin (Soil microorganisms [3]): 8
- Staining intensity Lignin (Soil microorganisms [3]): 1
- Staining intensity Chitin (Soil microorganisms [4]): 9
- Staining intensity Lignin (Soil microorganisms [4]): 0-1

SMILES: CCCC1COC(Cn2cncn2)(c2ccc(Cl)cc2Cl)O1 (centres unmarked) [Propiconazole, 1-[[2-(2,4-dichlorophenyl)-4-propyl-1,3-dioxolan-2-yl]methyl]-1H-1,2,4-triazole]
- Intensity of Chitin Stain (White rot fungus; Corn plant): 1
- Intensity of Lignin Stain (White rot fungus; Corn plant): 8
- Intensity of Chitin Stain (White rot fungus; Tulip tree): 2
- Intensity of Lignin Stain (White rot fungus; Tulip tree): 7
- Intensity of Chitin Stain (White rot fungus; White Pine tree): 1
- Intensity of Lignin Stain (White rot fungus; White Pine tree): 8

SMILES: O=C(O)C(F)=Cc1ccccc1 [alpha-Fluorocinnamic Acid]
- Staining intensity Chitin (white-rot fungus [2]; [5]): 6

SMILES: O=C(O)CN(CP(=O)(O)O)CP(=O)(O)O [Glyphosine, reference compound]
- Effect on recalcitrance of lignin to biodegradation by white-rot fungi conferred by halogen-substituted precursors (white-rot fungus [2]; glyphosine at one fourth the label rate added to the modified precursor, sugar cane): increases the effectiveness

SMILES: O=C(O)C=Cc1cccc(Cl)c1 [3-Cholorcinnamic Acid, 3-Cholorcinnamic acid]
- Staining intensity Chitin (white-rot fungus [2]; [6]): 2
- Staining intensity Lignin (white-rot fungus [2]; [6]): 7
- Staining intensity Chitin (white-rot fungus [2]; [7]): 3
- Staining intensity Lignin (white-rot fungus [2]; [7]): 5
- Staining intensity Chitin (white-rot fungus [2]; [5]): 7
- Staining intensity Lignin (white-rot fungus [2]; [5]): 5
- Staining intensity Chitin (white-rot fungus [2]; [8]): 4
- Staining intensity Lignin (white-rot fungus [2]; [8]): 4
- Staining intensity Chitin (white-rot fungus [2]; [9]): 2
- Staining intensity Lignin (white-rot fungus [2]; [9]): 6
- Staining intensity Chitin (white-rot fungus [2]; [10]): 1
- Staining intensity Lignin (white-rot fungus [2]; [10]): 7
- Staining intensity Chitin (Soil microorganisms [3]): 3
- Staining intensity Lignin (Soil microorganisms [3]): 6
- Staining intensity Chitin (Soil microorganisms [4]): 4
- Staining intensity Lignin (Soil microorganisms [4]): 7
- Staining intensity Chitin (white-rot fungus [1]; [11]): 2
- Staining intensity Lignin (white-rot fungus [1]; [11]): 7
- Staining intensity Chitin (white-rot fungus [1]; [12]): 3
- Staining intensity Lignin (white-rot fungus [1]; [12]): 6

SMILES: O=Cc1ccc(O)cc1Cl [2-Chloro-4-hydroxybenzaldehyde]
- Staining intensity Chitin (white-rot fungus [2]; [6]): 2
- Staining intensity Lignin (white-rot fungus [2]; [6]): 7
- Staining intensity Chitin (white-rot fungus [2]; [7]): 3
- Staining intensity Lignin (white-rot fungus [2]; [7]): 6
- Staining intensity Chitin (white-rot fungus [2]; [5]): 4
- Staining intensity Lignin (white-rot fungus [2]; [5]): 3
- Staining intensity Chitin (Soil microorganisms [3]): 3
- Staining intensity Lignin (Soil microorganisms [3]): 6
- Staining intensity Chitin (Soil microorganisms [4]): 3
- Staining intensity Lignin (Soil microorganisms [4]): 6

SMILES: COC(=O)Nc1nc2ccccc2[nH]1 [Carbendazim, methyl-2-benzimidazole carbamate]
- Intensity of Chitin Stain (White rot fungus; Corn plant): 2
- Intensity of Lignin Stain (White rot fungus; Corn plant): 8
- Intensity of Chitin Stain (White rot fungus; Tulip tree): 1
- Intensity of Lignin Stain (White rot fungus; Tulip tree): 8
- Intensity of Chitin Stain (White rot fungus; White Pine tree): 2
- Intensity of Lignin Stain (White rot fungus; White Pine tree): 7

SMILES: O=C(O)C=Cc1c(F)cccc1F [2,6-Difluorocinnamic Acid]
- Staining intensity Chitin (white-rot fungus [2]; [5]): 3
- Staining intensity Lignin (white-rot fungus [2]; [5]): 5
- Staining intensity Chitin (white-rot fungus [2]; [8]): 5
- Staining intensity Lignin (white-rot fungus [2]; [8]): 4
- Staining intensity Chitin (white-rot fungus [2]; [9]): 3
- Staining intensity Lignin (white-rot fungus [2]; [9]): 6
- Staining intensity Chitin (white-rot fungus [2]; [10]): 2
- Staining intensity Lignin (white-rot fungus [2]; [10]): 7
- Staining intensity Chitin (Soil microorganisms [3]): 4
- Staining intensity Lignin (Soil microorganisms [3]): 5
- Staining intensity Chitin (Soil microorganisms [4]): 6
- Staining intensity Lignin (Soil microorganisms [4]): 5

SMILES: O=Cc1cc(Br)c(O)c(Br)c1 [3,5-Dibromo-4-hydroxybenzaldehyde]
- Staining intensity Chitin (white-rot fungus [2]; [5]): 6
- Staining intensity Lignin (white-rot fungus [2]; [5]): 5
